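48-hour exposure; five concentrations; linearly interpolated endpoints. GI50: concentration for 50% inhibition of growth.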 Active and inactive are the calls of the source. Cut-off read from the data, not from the text of the source: active = GI50 up to about 1.1 µM and inactive = higher.
Columns and labels:
Experiment in all cases: NCI-60 cell line screen, 48 h
EKVX = test system: EKVX
Malme-3M = test system: Malme-3M
UACC-257 = test system: UACC-257
RPMI-8226 = test system: RPMI-8226
KM12 = test system: KM12
786-0 = test system: 786-0
UO-31 = test system: UO-31
NCI-H522 = test system: NCI-H522
SK-OV-3 = test system: SK-OV-3
HCC 2998 = test system: HCC 2998
CAKI-1 = test system: CAKI-1
SN12C = test system: SN12C
LOX IMVI = test system: LOX IMVI
HOP-62 = test system: HOP-62
HCT-116 = test system: HCT-116
U-251 = test system: U-251
HCT-15 = test system: HCT-15
NCI-H226 = test system: NCI-H226
COLO 205 = test system: COLO 205

Row | Compound | GI50 (EKVX) | GI50 (Malme-3M) | GI50 (UACC-257) | GI50 (RPMI-8226) | GI50 (KM12) | GI50 (786-0) | GI50 (UO-31) | GI50 (NCI-H522) | GI50 (SK-OV-3) | GI50 (HCC 2998) | GI50 (CAKI-1) | GI50 (SN12C) | GI50 (LOX IMVI) | GI50 (HOP-62) | GI50 (HCT-116) | GI50 (U-251) | GI50 (HCT-15) | GI50 (NCI-H226) | GI50 (COLO 205)
1 | O=C(Nc1nc2ccccc2n1Cc1ccccc1)NC12CC3CC(CC(C3)C1)C2 | > 100 µM (inactive) | 39.6 µM (inactive) | > 100 µM (inactive) | > 100 µM (inactive) | > 100 µM (inactive) | 24 µM (inactive) | > 100 µM (inactive) | 44.7 µM (inactive) | 27.9 µM (inactive) | > 100 µM (inactive) | 88.9 µM (inactive) | 82.8 µM (inactive) | 40.3 µM (inactive) | 32.6 µM (inactive) | 30.4 µM (inactive) | 39 µM (inactive) | > 100 µM | 51.6 µM (inactive) | 48.5 µM (inactive)
2 | Cn1c(=O)c(C(=O)NC(=O)NCCCCCOC(=O)CCCCCCCCCCC(=O)OCCCCCNC(=O)NC(=O)c2cn(Cc3ccccc3)c(=O)n(C)c2=O)cn(Cc2ccccc2)c1=O | > 100 µM (inactive) | > 100 µM (inactive) | > 100 µM (inactive) | > 100 µM (inactive) | > 100 µM (inactive) | > 100 µM (inactive) | > 100 µM (inactive) | > 100 µM (inactive) | > 100 µM (inactive) | > 100 µM (inactive) | > 100 µM (inactive) | > 100 µM (inactive) | > 100 µM (inactive) | > 100 µM (inactive) | > 100 µM (inactive) | > 100 µM (inactive) | > 100 µM | > 100 µM (inactive) | > 100 µM (inactive)
3 | COC(=O)[C@H]1C=C[C@@H](C)n2c(=O)c3ccccc3c(=O)n21 | > 100 µM (inactive) | > 100 µM (inactive) | > 100 µM (inactive) | > 100 µM (inactive) | > 100 µM (inactive) | > 100 µM (inactive) | > 100 µM (inactive) | > 100 µM (inactive) | > 100 µM (inactive) | > 100 µM (inactive) | > 100 µM (inactive) | > 100 µM (inactive) | > 100 µM (inactive) | > 100 µM (inactive) | > 100 µM (inactive) | > 100 µM (inactive) | > 100 µM | > 100 µM (inactive) | > 100 µM (inactive)
4 | [N-]=[N+]=Nc1ncnc2c1sc(=S)n2-c1ccccc1 | > 100 µM (inactive) | > 100 µM (inactive) | > 100 µM (inactive) | > 100 µM (inactive) | > 100 µM (inactive) | > 100 µM (inactive) | > 100 µM (inactive) | > 100 µM (inactive) | > 100 µM (inactive) | > 100 µM (inactive) | > 100 µM (inactive) | > 100 µM (inactive) | > 100 µM (inactive) | 21.6 µM (inactive) | > 100 µM (inactive) | > 100 µM (inactive) | > 100 µM | > 100 µM (inactive) | > 100 µM (inactive)
5 | O=C(c1ccccc1)N1C2C3CC(OCc4ccccc4)(OCc4ccccc4)C(O3)C21 (stereo not drawn) | > 100 µM (inactive) | > 100 µM (inactive) | – | 54.2 µM (inactive) | – | > 100 µM (inactive) | > 100 µM (inactive) | > 100 µM (inactive) | > 100 µM (inactive) | > 100 µM (inactive) | > 100 µM (inactive) | > 100 µM (inactive) | > 100 µM (inactive) | > 100 µM (inactive) | > 100 µM (inactive) | > 100 µM (inactive) | > 100 µM | > 100 µM (inactive) | > 100 µM (inactive)
6 | Fc1cc(-c2cc(-c3ccc4c(c3)OCO4)n[nH]2)c(Cl)cc1Cl | 1.75 µM (inactive) | 4.94 µM (inactive) | 9.82 µM (inactive) | 4.54 µM (inactive) | 3.01 µM (inactive) | 1.84 µM (inactive) | 2.51 µM (inactive) | 4.1 µM (inactive) | 2.13 µM (inactive) | 4.94 µM (inactive) | 3.18 µM (inactive) | 2.7 µM (inactive) | 2.95 µM (inactive) | 2.29 µM (inactive) | 2 µM (inactive) | 1.91 µM (inactive) | 7.71 µM | 1.99 µM (inactive) | 3.42 µM (inactive)
7 | C=C1c2nc3ccccc3n2C=C(c2ccc(C)cc2)N1c1ccc(OC)cc1 | 32.5 µM (inactive) | 21.8 µM (inactive) | > 89.1 µM (inactive) | 13 µM (inactive) | 5.56 µM (inactive) | > 100 µM (inactive) | 44.5 µM (inactive) | 7.52 µM (inactive) | > 100 µM (inactive) | 31.8 µM (inactive) | 36.1 µM (inactive) | > 94.4 µM (inactive) | 50.1 µM (inactive) | > 100 µM (inactive) | 19.5 µM (inactive) | 97.7 µM (inactive) | 9.51 µM | 27.9 µM (inactive) | 31.9 µM (inactive)
8 | CCCCCCC(O)C/C=C/CCCCCC/C(C(=O)OC)=C(/O)C(=O)OCC (stereo not drawn) | > 100 µM (inactive) | > 100 µM (inactive) | > 100 µM (inactive) | > 100 µM (inactive) | > 100 µM (inactive) | > 100 µM (inactive) | > 100 µM (inactive) | 85.1 µM (inactive) | > 100 µM (inactive) | > 100 µM (inactive) | > 100 µM (inactive) | > 100 µM (inactive) | > 100 µM (inactive) | > 100 µM (inactive) | > 100 µM (inactive) | > 100 µM (inactive) | > 100 µM | > 100 µM (inactive) | > 100 µM (inactive)
9 | C=C1C(=O)OC2/C=C(/C)C3CC(O)C(C)(CC(OC(=O)/C(C)=C/C)C12)O3 (stereo not drawn) | 3.86 µM (inactive) | 2.28 µM (inactive) | 4.25 µM (inactive) | 1.83 µM (inactive) | 3.33 µM (inactive) | 3.29 µM (inactive) | 5.86 µM (inactive) | 1.6 µM (inactive) | 36.1 µM (inactive) | 13.2 µM (inactive) | 1.97 µM (inactive) | 3.27 µM (inactive) | 1.76 µM (inactive) | 25.1 µM (inactive) | 1.53 µM (inactive) | 9.04 µM (inactive) | 1.76 µM | 14.7 µM (inactive) | 1.52 µM (inactive)
10 | CNC1=Nc2ccc(Cl)cc2C(OP(=O)(N2CCOCC2)N2CCOCC2)=NC1 | 84.9 µM (inactive) | > 100 µM (inactive) | > 100 µM (inactive) | > 100 µM (inactive) | > 100 µM (inactive) | > 100 µM (inactive) | > 100 µM (inactive) | 26.5 µM (inactive) | – | > 100 µM (inactive) | > 100 µM (inactive) | > 100 µM (inactive) | > 100 µM (inactive) | – | > 100 µM (inactive) | > 100 µM (inactive) | > 100 µM | > 100 µM (inactive) | –
11 | CCOC(=O)C1=C(c2ccccc2)NC(c2ccccc2)=C(C(=O)OCC)c2c1c(=O)cc[nH]c2=O | – | > 100 µM (inactive) | 99.8 µM (inactive) | 53.1 µM (inactive) | > 100 µM (inactive) | > 100 µM (inactive) | > 100 µM (inactive) | 84.1 µM (inactive) | > 100 µM (inactive) | > 100 µM (inactive) | > 100 µM (inactive) | > 100 µM (inactive) | 62.1 µM (inactive) | > 100 µM (inactive) | > 100 µM (inactive) | > 100 µM (inactive) | > 100 µM | > 100 µM (inactive) | > 100 µM (inactive)

Reference: ChEMBL document CHEMBL1201862, “PubChem BioAssay data set” (2004)
